“Also recorded” adds a separate entry of the source. Read-outs that look alike come from different tables or passages of the source. One block for each molecule: values may come before it.
Experiments:
[1] = parameters: method as in PMID 20551239, PMID 20091161, PMID 20642549, PMID 16476694, PMID 17980251; conditions: cited from earlier work
[2] = Ticagrelor-ketoconazole interaction study: pharmacokinetic parameters of ticagrelor and AR-C124910XX; conditions: for Cmax: po
Experimental: (§1) Both studies were single-center, randomized, open-label studies with a two-period, in-patient, crossover design. For both studies, a low non-loading dose of ticagrelor (i.e., a single oral dose of 90 mg) was selected, so if an interaction occurred between ticagrelor and the CYP3A4 inhibitor, then the increase in ticagrelor plasma concentrations would minimize any safety issues. […] The approved dosing regimen of ticagrelor is 180 mg loading dose followed by 90 mg twice daily thereafter3,4.
(§2) Figure 1 depicts the overall study design for both studies. At the start of each study, volunteers were randomized to one of two treatments (A or B). After the washout period, volunteers received the alternate dosing regimen. On the scheduled day, ticagrelor was co-administered with the CYP3A4 inhibitor in the morning after fasting for ≥10 hours followed by a further fast for ≥4 hours. Water was permitted ad libitum throughout each period except for 2 hours before and after ticagrelor administration.
(§3) The limits of quantification (LOQ) for ticagrelor and AR-C124910XX were […], respectively28.
(§4) Plasma concentration–time data were used to calculate Cmax, time to maximum concentration (tmax), AUC, and the terminal elimination half-life (t½). The latter was calculated as 0.693/λz, where λz is the terminal phase elimination rate constant, derived by least-squares regression analysis of the plasma concentration–time data obtained over the terminal log-linear phase. AUC was calculated using the linear trapezoidal method and extrapolated to infinity. AR-C124910XX:ticagrelor ratios for Cmax and AUC were calculated.
(§5) Statistical analyses were conducted using SAS version 8 (SAS Institute, Cary, North Carolina, USA). Pharmacokinetic parameters were summarized by descriptive statistics. AUC and Cmax values for ticagrelor and AR-C124910XX were analyzed, following log-transformation, by analysis of variance with terms for treatment, period, and sequence, and the volunteer within sequence was included as a random effect. After exponentiation, geometric least square mean point estimates and 90% CIs for the ratio ticagrelor + CYP3A4 inhibitor/ticagrelor alone were calculated. The pre-specified limits for the 90% CI values indicating no interaction between ticagrelor and either CYP3A4 inhibitor were 0.7–1.43.

[3] = parameters: method as in PMID 20091161; conditions: single oral dose of ticagrelor 100 mg; healthy volunteers n = 9; cited from earlier work
platelet aggregation = test system: platelet aggregation; parameters: method as in AstraZeneca, data on file; conditions: ref AstraZeneca, data on file; cited from earlier work
[4] = Ticagrelor-diltiazem interaction study: pharmacokinetic parameters of ticagrelor and AR-C124910XX; conditions: for Cmax: po
Experimental: as §1, §2, §3, §4, §5

P-glycoprotein = conditions: ref 18 (AstraZeneca, data on file); cited from earlier work
[5] = Safety and tolerability, ketoconazole study; assay type: in vivo, human
Experimental: (§6) Safety and tolerability of ticagrelor alone and in the presence of diltiazem or ketoconazole were evaluated by assessment of adverse events (AEs), vital signs, electrocardiographic (ECG), physical examination, and laboratory parameters (clinical chemistry, hematology, and urinalysis) throughout the studies.

[6] = cited from earlier work
[7] = cited from earlier work; remark: listed apart in the source
[8] = Safety and tolerability, diltiazem study; assay type: in vivo, human
Experimental: as §6

[9] = parameters: method as in PMID 19717846; conditions: ticagrelor + aspirin compared with clopidogrel + aspirin; patients with ACS; cited from earlier work
CYP3A [10] = test system: CYP3A; parameters: method as in PMID 21177984; conditions: cited from earlier work; for Inhibition of CYP3A activity in vitro: in words
[11] = parameters: method as in PMID 16476694; conditions: 28 days, cited from earlier work
[12] = Effect of ticagrelor on diltiazem pharmacokinetic parameters; assay type: in vivo, human; conditions: for Tmax: human, plasma, read-out: Median tmax (range); for Effect of ticagrelor on pharmacokinetic parameters: in words
CYP3A [13] = conditions: cited from earlier work
[14] = Effect of ticagrelor on ketoconazole steady-state plasma concentrations; assay type: in vivo, human; conditions: for Plasma concentration, mean (% CV; range): ketoconazole 200 mg twice daily
Experimental: as §1, §3, §4

[15] = ketoconazole co-administration vs ticagrelor alone
[16] = ticagrelor + ketoconazole/ticagrelor alone
[17] = single dose 900 mg, healthy volunteers n = 6
[18] = diltiazem co-administration vs ticagrelor alone
[19] = ticagrelor + diltiazem/ticagrelor alone

Metabolite:parent AUC ratio ([2]; human, in vivo): 0.49 (24) | Metabolite:parent Cmax ratio ([2]; human, in vivo): 0.32 (22) | AUC ([2]; human, in vivo, 90 mg): 1769 (28) ng·h/mL | Tmax ([2]; human, in vivo, 90 mg): 2.0 (2.0–4.0) h | t½ ([2]; human, in vivo, 90 mg): 8.0 (6.3–16.7) h | Cmax ([2]; human, in vivo): 207 (29) ng/mL | Metabolite:parent AUC ratio ([4]; human, in vivo): 0.4 (39) | Metabolite:parent Cmax ratio ([4]; human, in vivo): 0.3 (36) | AUC ([4]; human, in vivo, 90 mg): 1630 (29) ng·h/mL | Tmax ([4]; human, in vivo, 90 mg): 3.0 (2.0–4.0) h | t½ ([4]; human, in vivo, 90 mg): 8.4 (1.3) h | Cmax ([4]; human, in vivo): 173 (38) ng/mL
SMILES: CCCSc1nc(N[C@@H]2C[C@H]2c2ccc(F)c(F)c2)c2nnn([C@@H]3C[C@H](O)[C@@H](O)[C@H]3O)c2n1 [AR-C124910XX]
Metabolite level as share of the levels of ticagrelor [1]: 30–40% | AUC, mean ± standard deviation [3]: 1460 ± 408 ng·h/mL | Potency in inhibiting platelet aggregation relative to ticagrelor (platelet aggregation): approximately equipotent

SMILES: CCCSc1nc(N[C@@H]2C[C@H]2c2ccc(F)c(F)c2)c2nnn([C@@H]3C[C@H](OCCO)[C@@H](O)[C@H]3O)c2n1 [Ticagrelor]
P-glycoprotein substrate status (P-glycoprotein): substrate | AEs ([5]; in vivo): five AEs | Deaths or serious AEs ([5]; ketoconazole study): No deaths or serious AEs | Total bleeding events: number of events (Kaplan–Meier event rates) ([6]; 90 mg twice daily, through week 4): 32 (9.8) | Total bleeding events: number of events (Kaplan–Meier event rates) ([6]; 90 mg twice daily, through week 12): 34 (10.9) | Mean AUC ± SD ([6]; 90 mg twice daily, week 4): 4762 ± 2443 ng·h/mL | Total bleeding events: number of events (Kaplan–Meier event rates) ([6]; 180 mg twice daily, through week 4): 25 (8.0) | Total bleeding events: number of events (Kaplan–Meier event rates) ([6]; 180 mg twice daily, through week 12): 33 (11.4) | Mean AUC ± SD ([6]; 180 mg twice daily, week 4): 13,198 ± 4982 ng·h/mL | Inhibition of platelet aggregation (IPA) ([6]; 180 mg vs 90 mg twice daily): dose-dependent increase | Increase in ticagrelor exposure ([6]; 180 mg vs 90 mg twice daily, week 4): 277% | Increase in AUC ([2]; co-administration of ketoconazole): ≥ 5 fold | AUC ([2]; human, plasma, oral, 90 mg): 3640 ng·h/mL | Tmax ([2]; human, plasma, oral, 90 mg): 2 h | half-life ([2]; human, plasma, oral, 90 mg): 7.1 h | Cmax ([2]; human, plasma, 90 mg): 654 ng/mL | Increase in AUC [2, 15]: 632% | Increase in Cmax [2, 15]: 135% | Half-life increased to (relative to ticagrelor alone) ([2]; presence of ketoconazole): approximately 362% | AUC GLS mean ratio: point estimate (90% CI) [2, 16]: 7.32 (6.43–8.34) | Cmax GLS mean ratio: point estimate (90% CI) [2, 16]: 2.35 (2.13–2.60) | Maximum tolerated single dose ([7]; healthy volunteers): 900 mg | AUC, mean [% CV] [7, 17]: 39,153 [38] ng·h/mL | Bleeding-related AEs [7, 17]: no bleeding-related AEs | Cmax, mean [% CV] [7, 17]: 5153 [42] ng/mL | Deaths or serious AEs ([8]; diltiazem study): No deaths or serious AEs | Bleeding events ([8]; in vivo): No such events | AEs reported ([8]; in vivo, po): No AEs | AUC, mean ± standard deviation [3]: 3683 ± 753 ng·h/mL | Rate of myocardial infarction/stroke/death from vascular causes [9]: significantly reduced | Metabolism by CYP3A (CYP3A [10]; human liver microsomes / in vitro): principally metabolized by CYP3A; also recorded: substrate | Inhibition of CYP3A activity in vitro (CYP3A [10]): weak-to-moderate inhibitor | Inhibition of CYP3A activity in vitro (CYP3A [10]; listed as ticagrelor): weak inhibitor | Increase in AUC [4, 18]: 174% | Increase in Cmax [4, 18]: 69% | Increase in half-life [4, 18]: 96% | AUC ([4]; human, plasma, oral, 90 mg): 3700 ng·h/mL | Tmax ([4]; human, plasma, oral, 90 mg): 2 h | half-life ([4]; human, plasma, oral, 90 mg): 8.3 h | Cmax ([4]; human, plasma, 90 mg): 519 ng/mL | Effect of diltiazem on median tmax ([4]; in words): unaffected | AUC GLS mean ratio: point estimate (90% CI) [4, 19]: 2.74 (2.40–3.13) | Cmax GLS mean ratio: point estimate (90% CI) [4, 19]: 1.69 (1.47–1.95) | Mean AUC ([11]; 100 mg ticagrelor twice daily, CV 45%): 5337 ng·h/mL | Mean AUC ([11]; 200 mg ticagrelor twice daily, CV 39%): 15,104 ng·h/mL | Increase in exposure ([11]; 200 mg vs 100 mg twice daily): 283%

Tmax ([12]; diltiazem + ticagrelor): 10 h | Tmax ([12]; diltiazem alone): 8 h | Effect of ticagrelor on pharmacokinetic parameters [12]: no effect; also recorded: did not affect | Effect of ticagrelor on pharmacokinetic parameters ([12]; listed as Diltiazem): not significantly affected
SMILES: COc1ccc([C@@H]2Sc3ccccc3N(CCN(C)C)C(=O)[C@@H]2OC(C)=O)cc1 [diltiazem, Diltiazem]
Abnormal ECG evaluations of first-degree atria-ventricular block ([8]; in vivo): two volunteers | Systolic and diastolic blood pressure compared to baseline ([8]; in vivo): marginal decrease

SMILES: CC(=O)N1CCN(c2ccc(OCC3COC(Cn4ccnc4)(c4ccc(Cl)cc4Cl)O3)cc2)CC1 (stereo not drawn) [ketoconazole]
CYP3A substrate status (CYP3A [13]): substrates for CYP3A | Classification as CYP3A inhibitor (CYP3A [13]): strong CYP3A inhibitor | Effect of ticagrelor on steady-state plasma concentrations / pharmacokinetic parameters ([14]; in words): not significantly affected; also recorded: did not affect | Plasma concentration, mean (% CV; range) ([14]; 12 hours post-dosing with ticagrelor on day 4): 1271 (84;334–4150) ng/mL | Plasma concentration, mean (% CV; range) ([14]; pre-dosing on day 4, absence of ticagrelor): 1410 (73; 396–3540) ng/mL

— PMC4937655 (Journal of Drug Assessment, 2013)
